{"source": "PubChem BioAssay AID1963840", "about": "(Molecular Pharmacology Branch, DTP, NCI, 2024)", "tested_on": "695427-040-R-J1-PDC complex spheroid viability", "assay": "Anticancer human tumor 695427-040-R-J1-PDC patient-derived colon adenocarcinoma cell line growth inhibition [POLQ]", "conditions": "for IC50: curve of first compound; for viability, T/C: stronger effect = lower value", "procedure,_shortened": "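Complex spheroid viability model combining PDC tumour cells with endothelial (HUVEC) and MSC stromal cells. Novobiocin, ART-558 or RP6685 were tested singly and in combination with standard and investigational anticancer drugs. Each was titrated in half-log steps from near clinical Cmax, or from 10 microM where Cmax was unknown.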", "key": {"[1]": {"conditions": "second compound 0.0316 µM, first compound 0.0316 µM"}, "[2]": {"conditions": "second compound 0.0316 µM, first compound 0.1 µM"}, "[3]": {"conditions": "second compound 0.0316 µM, first compound 0.316 µM"}, "[4]": {"conditions": "second compound 0.0316 µM, first compound 1 µM"}, "[5]": {"conditions": "second compound 0.0316 µM, first compound 3.16 µM"}, "[6]": {"conditions": "second compound 0.0316 µM, first compound 10 µM"}, "[7]": {"conditions": "second compound 0.1 µM, first compound 0.0316 µM"}, "[8]": {"conditions": "second compound 0.1 µM, first compound 0.1 µM"}, "[9]": {"conditions": "second compound 0.1 µM, first compound 0.316 µM"}, "[10]": {"conditions": "second compound 0.1 µM, first compound 1 µM"}, "[11]": {"conditions": "second compound 0.1 µM, first compound 3.16 µM"}, "[12]": {"conditions": "second compound 0.1 µM, first compound 10 µM"}, "[13]": {"conditions": "second compound 0.316 µM, first compound 0.0316 µM"}, "[14]": {"conditions": "second compound 0.316 µM, first compound 0.1 µM"}, "[15]": {"conditions": "second compound 0.316 µM, first compound 0.316 µM"}, "[16]": {"conditions": "second compound 0.316 µM, first compound 1 µM"}, "[17]": {"conditions": "second compound 0.316 µM, first compound 3.16 µM"}, "[18]": {"conditions": "second compound 0.316 µM, first compound 10 µM"}, "[19]": {"conditions": "second compound 1 µM, first compound 0.0316 µM"}, "[20]": {"conditions": "second compound 1 µM, first compound 0.1 µM"}, "[21]": {"conditions": "second compound 1 µM, first compound 0.316 µM"}, "[22]": {"conditions": "second compound 1 µM, first compound 1 µM"}, "[23]": {"conditions": "second compound 1 µM, first compound 3.16 µM"}, "[24]": {"conditions": "second compound 1 µM, first compound 10 µM"}, "[25]": {"conditions": "second compound 3.16 µM, first compound 0.0316 µM"}, "[26]": {"conditions": "second compound 3.16 µM, first compound 0.1 µM"}, "[27]": {"conditions": "second compound 3.16 µM, first compound 0.316 µM"}, "[28]": {"conditions": "second compound 3.16 µM, first compound 1 µM"}, "[29]": {"conditions": "second compound 3.16 µM, first compound 3.16 µM"}, "[30]": {"conditions": "second compound 3.16 µM, first compound 10 µM"}, "[31]": {"conditions": "second compound 10 µM, first compound 0.0316 µM"}, "[32]": {"conditions": "second compound 10 µM, first compound 0.1 µM"}, "[33]": {"conditions": "second compound 10 µM, first compound 0.316 µM"}, "[34]": {"conditions": "second compound 10 µM, first compound 1 µM"}, "[35]": {"conditions": "second compound 10 µM, first compound 3.16 µM"}, "[36]": {"conditions": "second compound 10 µM, first compound 10 µM"}}}
{"compound": "C#Cc1c(F)ccc2cc(O)cc(-c3ncc4c(N5CC6CCC(C5)N6)nc(OCC56CCCN5CC(F)C6)nc4c3F)c12", "note": "(centres undefined) + COC1C(OC(N)=O)C(O)C(Oc2ccc3c(O)c(NC(=O)c4ccc(O)c(CC=C(C)C)c4)c(=O)oc3c2C)OC1(C)C;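 further: spheroids exposed to compounds for seven days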;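 on viability, T/C: 100% = DMSO vehicle control viability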", "values": [{"measurement": "IC50", "setting": "second compound 0.0316 µM", "result": "> 10", "unit": "µM"}, {"measurement": "IC50", "setting": "second compound 0.1 µM", "result": "> 10", "unit": "µM"}, {"measurement": "IC50", "setting": "second compound 0.316 µM", "result": "> 10", "unit": "µM"}, {"measurement": "IC50", "setting": "second compound 1 µM", "result": "> 10", "unit": "µM"}, {"measurement": "IC50", "setting": "second compound 3.16 µM", "result": "> 10", "unit": "µM"}, {"measurement": "IC50", "setting": "second compound 10 µM", "result": "> 10", "unit": "µM"}, {"measurement": "viability, T/C", "setting": "[1]", "result": 113, "unit": "%"}, {"measurement": "viability, T/C", "setting": "[2]", "result": 99.8, "unit": "%"}, {"measurement": "viability, T/C", "setting": "[3]", "result": 108, "unit": "%"}, {"measurement": "viability, T/C", "setting": "[4]", "result": 107, "unit": "%"}, {"measurement": "viability, T/C", "setting": "[5]", "result": 97.3, "unit": "%"}, {"measurement": "viability, T/C", "setting": "[6]", "result": 96.5, "unit": "%"}, {"measurement": "viability, T/C", "setting": "[7]", "result": 110, "unit": "%"}, {"measurement": "viability, T/C", "setting": "[8]", "result": 97.6, "unit": "%"}, {"measurement": "viability, T/C", "setting": "[9]", "result": 105, "unit": "%"}, {"measurement": "viability, T/C", "setting": "[10]", "result": 99.9, "unit": "%"}, {"measurement": "viability, T/C", "setting": "[11]", "result": 102, "unit": "%"}, {"measurement": "viability, T/C", "setting": "[12]", "result": 84.7, "unit": "%"}, {"measurement": "viability, T/C", "setting": "[13]", "result": 107, "unit": "%"}, {"measurement": "viability, T/C", "setting": "[14]", "result": 101, "unit": "%"}, {"measurement": "viability, T/C", "setting": "[15]", "result": 98.2, "unit": "%"}, {"measurement": "viability, T/C", "setting": "[16]", "result": 99.2, "unit": "%"}, {"measurement": "viability, T/C", "setting": "[17]", "result": 95, "unit": "%"}, {"measurement": "viability, T/C", "setting": "[18]", "result": 90, "unit": "%"}, {"measurement": "viability, T/C", "setting": "[19]", "result": 101, "unit": "%"}, {"measurement": "viability, T/C", "setting": "[20]", "result": 97.9, "unit": "%"}, {"measurement": "viability, T/C", "setting": "[21]", "result": 108, "unit": "%"}, {"measurement": "viability, T/C", "setting": "[22]", "result": 97.1, "unit": "%"}, {"measurement": "viability, T/C", "setting": "[23]", "result": 97.1, "unit": "%"}, {"measurement": "viability, T/C", "setting": "[24]", "result": 91, "unit": "%"}, {"measurement": "viability, T/C", "setting": "[25]", "result": 105, "unit": "%"}, {"measurement": "viability, T/C", "setting": "[26]", "result": 109, "unit": "%"}, {"measurement": "viability, T/C", "setting": "[27]", "result": 98.7, "unit": "%"}, {"measurement": "viability, T/C", "setting": "[28]", "result": 94.8, "unit": "%"}, {"measurement": "viability, T/C", "setting": "[29]", "result": 104, "unit": "%"}, {"measurement": "viability, T/C", "setting": "[30]", "result": 90.7, "unit": "%"}, {"measurement": "viability, T/C", "setting": "[31]", "result": 107, "unit": "%"}, {"measurement": "viability, T/C", "setting": "[32]", "result": 104, "unit": "%"}, {"measurement": "viability, T/C", "setting": "[33]", "result": 104, "unit": "%"}, {"measurement": "viability, T/C", "setting": "[34]", "result": 95.6, "unit": "%"}, {"measurement": "viability, T/C", "setting": "[35]", "result": 101, "unit": "%"}, {"measurement": "viability, T/C", "setting": "[36]", "result": 80.4, "unit": "%"}]}
{"compound": "C=CC(=O)N1CCN(c2nc(=O)n(-c3c(C)ccnc3C(C)C)c3nc(-c4c(O)cccc4F)c(F)cc23)C(C)C1", "note": "(centres undefined) + COC1C(OC(N)=O)C(O)C(Oc2ccc3c(O)c(NC(=O)c4ccc(O)c(CC=C(C)C)c4)c(=O)oc3c2C)OC1(C)C", "values": [{"measurement": "IC50", "setting": "second compound 0.0316 µM", "result": "> 10", "unit": "µM"}, {"measurement": "IC50", "setting": "second compound 0.1 µM", "result": "> 10", "unit": "µM"}, {"measurement": "IC50", "setting": "second compound 0.316 µM", "result": "> 10", "unit": "µM"}, {"measurement": "IC50", "setting": "second compound 1 µM", "result": "> 10", "unit": "µM"}, {"measurement": "IC50", "setting": "second compound 3.16 µM", "result": "> 10", "unit": "µM"}, {"measurement": "IC50", "setting": "second compound 10 µM", "result": "> 10", "unit": "µM"}, {"measurement": "viability, T/C", "setting": "[1]", "result": 99.8, "unit": "%"}, {"measurement": "viability, T/C", "setting": "[2]", "result": 94.9, "unit": "%"}, {"measurement": "viability, T/C", "setting": "[3]", "result": 97.9, "unit": "%"}, {"measurement": "viability, T/C", "setting": "[4]", "result": 106, "unit": "%"}, {"measurement": "viability, T/C", "setting": "[5]", "result": 113, "unit": "%"}, {"measurement": "viability, T/C", "setting": "[6]", "result": 105, "unit": "%"}, {"measurement": "viability, T/C", "setting": "[7]", "result": 104, "unit": "%"}, {"measurement": "viability, T/C", "setting": "[8]", "result": 102, "unit": "%"}, {"measurement": "viability, T/C", "setting": "[9]", "result": 106, "unit": "%"}, {"measurement": "viability, T/C", "setting": "[10]", "result": 111, "unit": "%"}, {"measurement": "viability, T/C", "setting": "[11]", "result": 118, "unit": "%"}, {"measurement": "viability, T/C", "setting": "[12]", "result": 122, "unit": "%"}, {"measurement": "viability, T/C", "setting": "[13]", "result": 106, "unit": "%"}, {"measurement": "viability, T/C", "setting": "[14]", "result": 101, "unit": "%"}, {"measurement": "viability, T/C", "setting": "[15]", "result": 102, "unit": "%"}, {"measurement": "viability, T/C", "setting": "[16]", "result": 116, "unit": "%"}, {"measurement": "viability, T/C", "setting": "[17]", "result": 112, "unit": "%"}, {"measurement": "viability, T/C", "setting": "[18]", "result": 107, "unit": "%"}, {"measurement": "viability, T/C", "setting": "[19]", "result": 109, "unit": "%"}, {"measurement": "viability, T/C", "setting": "[20]", "result": 102, "unit": "%"}, {"measurement": "viability, T/C", "setting": "[21]", "result": 105, "unit": "%"}, {"measurement": "viability, T/C", "setting": "[22]", "result": 110, "unit": "%"}, {"measurement": "viability, T/C", "setting": "[23]", "result": 119, "unit": "%"}, {"measurement": "viability, T/C", "setting": "[24]", "result": 117, "unit": "%"}, {"measurement": "viability, T/C", "setting": "[25]", "result": 103, "unit": "%"}, {"measurement": "viability, T/C", "setting": "[26]", "result": 109, "unit": "%"}, {"measurement": "viability, T/C", "setting": "[27]", "result": 100, "unit": "%"}, {"measurement": "viability, T/C", "setting": "[28]", "result": 107, "unit": "%"}, {"measurement": "viability, T/C", "setting": "[29]", "result": 125, "unit": "%"}, {"measurement": "viability, T/C", "setting": "[30]", "result": 107, "unit": "%"}, {"measurement": "viability, T/C", "setting": "[31]", "result": 111, "unit": "%"}, {"measurement": "viability, T/C", "setting": "[32]", "result": 92.7, "unit": "%"}, {"measurement": "viability, T/C", "setting": "[33]", "result": 104, "unit": "%"}, {"measurement": "viability, T/C", "setting": "[34]", "result": 109, "unit": "%"}, {"measurement": "viability, T/C", "setting": "[35]", "result": 113, "unit": "%"}, {"measurement": "viability, T/C", "setting": "[36]", "result": 114, "unit": "%"}]}
